# In patent publication US6362369B1, “Phthalic acid diamide derivatives fluorine-containing aniline compounds as starting material, agricultural and horticultural insecticides, and a method for application of the insecticides” (Nihon Nohyaku Co., Ltd., priority 1997, dated 2002):
# What was measured:
# Type in all cases: in vivo
# [1] = tested on: diamondback moth (Plutella xylostella); assay: Insecticidal effect on diamondback moth (Test Example 1); settings: for Insecticidal effect, Test Example 1 / Insecticidal effect (Test Example 1), judged from mortality: diamondback moth; for Insecticidal effect on diamondback moth (Test Example 1), judged grade: mortality judged according to the criterion shown in Test Example 1; for Insecticidal effect (Test Example 1), judged from mortality: judged by the criterion of Test Example 1
# In short: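 Oviposition by adults on Chinese cabbage seedling; immersion; air-dry; 25° C room. Count of hatched larvae at day 6 post-immersion → mortality → effect graded by criterion. Triplicate, 10 insects/group.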
# [2] = tested on: common cutworm (Spodoptera Litura); assay: Insecticidal effect on common cutworm (Test Example 2); settings: 500 ppm, 25° C.; for Insecticidal effect, Test Example 2: cabbage leaf immersed; for Insecticidal effect, Test Example 2 / Insecticidal effect on common cutworm (Test Example 2), judged grade: eight days after inoculation; for Insecticidal effect on common cutworm (Test Example 2), judged grade / Insecticidal effect (Test Example 2), judged from mortality: cabbage leaf dip; for Insecticidal effect on common cutworm (Test Example 2), judged grade: second-instar larvae; for Insecticidal effect (Test Example 2), judged from mortality: 8 days after inoculation
# In short: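 Second-instar larvae placed in 9 cm Petri dishes with air-dried treated material, held at 25 °C. Dead and live insects counted 8 days after inoculation; mortality calculated and scored against a set criterion. Triplicate groups of 10 insects.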
# [3] = tested on: rice leafroller (Cnaphalocrocis medinalis); assay: Insecticidal effect on rice leafroller (Test Example 3); settings: 500 ppm, 25° C., humidity 70%; for Insecticidal effect, Test Example 3: rice lamina immersed; for Insecticidal effect, Test Example 3 / Insecticidal effect on rice leafroller (Test Example 3), judged grade: four days after inoculation; for Insecticidal effect on rice leafroller (Test Example 3), judged grade / Insecticidal effect (Test Example 3), judged from mortality: rice lamina dip; for Insecticidal effect on rice leafroller (Test Example 3), judged grade: third-instar larvae; for Insecticidal effect (Test Example 3), judged from mortality: 4 days after inoculation
# In short: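 Insecticidal effect is judged by a predefined criterion from dead/alive counts four days after infesting air-dried lamina with third-instar larvae, kept on moistened filter paper at 25° C, 70% humidity.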
# [4] = judged by the mortality criterion of Test Example 1
# [5] = second-instar larvae of common cutworm
# [6] = third-instar larvae of rice leafroller
# [7] = mortality judged by criterion of Test Example 1
# [8] = common cutworm second-instar larvae
# [9] = rice leafroller third-instar larvae
smiles,measurement,setting,value
Cc1cc(OC(F)F)ccc1NC(=O)c1c(Br)cccc1C(=O)NC(C)C [compound 325],"Insecticidal effect, Test Example 1",[1]; [4],A (100)
same,"Insecticidal effect, Test Example 2",[2]; [5],A (100)
same,"Insecticidal effect, Test Example 3",[3]; [6],A (100)
Cc1cc(OC(F)(F)F)ccc1NC(=O)c1ccc(Cl)c(Cl)c1C(=O)NC(C)C [compound 1221],"Insecticidal effect, Test Example 1",[1]; [7],A (100)
same,"Insecticidal effect, Test Example 2",[2]; [8],A (100)
same,"Insecticidal effect, Test Example 3",[3]; [9],A (100)
Cc1cc(C(F)(F)C(F)(F)C(F)(F)F)ccc1NC(=O)c1cccc([N+](=O)[O-])c1C(=O)NC(C)C [compound 684],"Insecticidal effect on diamondback moth (Test Example 1), judged grade",[1],A (100)
same,"Insecticidal effect on common cutworm (Test Example 2), judged grade",[2],A (100)
same,"Insecticidal effect on rice leafroller (Test Example 3), judged grade",[3],A (100)
CC(C)NC(=O)c1c(I)cccc1C(=O)Nc1ccc(C(F)(F)C(F)(F)C(F)(F)F)cc1F [compound 1474],"Insecticidal effect (Test Example 1), judged from mortality",[1],A (100)
same,"Insecticidal effect (Test Example 2), judged from mortality",[2]; [5],A (100)
same,"Insecticidal effect (Test Example 3), judged from mortality",[3]; [6],A (100)
Cc1cc(C(F)(F)C(F)(F)F)ccc1NC(=O)c1cccc(I)c1C(=O)NC(C)CO (stereo not drawn) [compound 1300],"Insecticidal effect, Test Example 1",[1]; [7],A (100)
same,"Insecticidal effect, Test Example 2",[2]; [8],A (100)
same,"Insecticidal effect, Test Example 3",[3]; [9],A (100)
CC(C)NC(=O)c1c(Cl)cccc1C(=O)Nc1ccc2c(c1)OC(F)(F)O2 [compound 1101],"Insecticidal effect, Test Example 1",[1]; [7],A (100)
same,"Insecticidal effect, Test Example 2",[2]; [8],C (89-80)
same,"Insecticidal effect, Test Example 3",[3]; [9],A (100)
Cc1c(F)cccc1NC(=O)c1cccc([N+](=O)[O-])c1C(=O)NC(C)C [compound 674],"Insecticidal effect on diamondback moth (Test Example 1), judged grade",[1],A (100)
same,"Insecticidal effect on common cutworm (Test Example 2), judged grade",[2],D (79-50)
same,"Insecticidal effect on rice leafroller (Test Example 3), judged grade",[3],A (100)
Cc1cc(OC(F)(F)C(F)Cl)ccc1NC(=O)c1cccc([N+](=O)[O-])c1C(=O)NC(C)C (stereo not drawn) [compound 714],"Insecticidal effect on diamondback moth (Test Example 1), judged grade",[1],A (100)
same,"Insecticidal effect on common cutworm (Test Example 2), judged grade",[2],A (100)
same,"Insecticidal effect on rice leafroller (Test Example 3), judged grade",[3],A (100)
CCN(CC)C(=O)c1c(I)cccc1C(=O)Nc1ccc2c(c1)OC(F)(F)C(F)O2 (stereo not drawn) [compound 1167],"Insecticidal effect, Test Example 1",[1]; [7],A (100)
same,"Insecticidal effect, Test Example 2",[2]; [8],A (100)
same,"Insecticidal effect, Test Example 3",[3]; [9],A (100)
CCN(CC)C(=O)c1c(F)cccc1C(=O)Nc1ccc(C(F)(F)C(F)(F)F)cc1Cl [compound 1531],"Insecticidal effect (Test Example 1), judged from mortality",[1],A (100)
same,"Insecticidal effect (Test Example 2), judged from mortality",[2]; [5],A (100)
same,"Insecticidal effect (Test Example 3), judged from mortality",[3]; [6],A (100)
CCN(CC)C(=O)c1cccc([N+](=O)[O-])c1C(=O)Nc1ccc(C(F)(F)C(F)(F)F)cc1C [compound 1551],"Insecticidal effect (Test Example 1), judged from mortality",[1],A (100)
same,"Insecticidal effect (Test Example 2), judged from mortality",[2]; [5],D (79-50)
same,"Insecticidal effect (Test Example 3), judged from mortality",[3]; [6],A (100)
Cc1cc(OCC(F)(F)F)ccc1NC(=O)c1cccc(I)c1C(=O)NC(C)C [compound 379],"Insecticidal effect, Test Example 1",[1]; [4],A (100)
same,"Insecticidal effect, Test Example 2",[2]; [5],A (100)
same,"Insecticidal effect, Test Example 3",[3]; [6],A (100)
Cc1cc(OC(F)(F)C(F)(F)Br)ccc1NC(=O)c1cccc(Cl)c1C(=O)NC(C)C [compound 144],"Insecticidal effect, Test Example 1",[1]; [4],A (100)
same,"Insecticidal effect, Test Example 2",[2]; [5],A (100)
same,"Insecticidal effect, Test Example 3",[3]; [6],A (100)
CC(C)NC(=O)c1c(F)cccc1C(=O)Nc1ccc(C(F)(C(F)(F)F)C(F)(F)F)cc1 [compound 474],"Insecticidal effect on diamondback moth (Test Example 1), judged grade",[1],A (100)
same,"Insecticidal effect on common cutworm (Test Example 2), judged grade",[2],B (99-90)
same,"Insecticidal effect on rice leafroller (Test Example 3), judged grade",[3],A (100)
CC(C)NC(=O)c1cccc(F)c1C(=O)Nc1ccc(C(F)(C(F)(F)F)C(F)(F)F)cc1Cl [compound 561],"Insecticidal effect on diamondback moth (Test Example 1), judged grade",[1],A (100)
same,"Insecticidal effect on common cutworm (Test Example 2), judged grade",[2],C (89-80)
same,"Insecticidal effect on rice leafroller (Test Example 3), judged grade",[3],A (100)
Cc1cc(C(F)(F)C(F)(F)F)ccc1NC(=O)c1cccc(Cl)c1C(=O)NCc1ccccc1Cl [compound 1309],"Insecticidal effect, Test Example 1",[1]; [7],A (100)
same,"Insecticidal effect, Test Example 2",[2]; [8],A (100)
same,"Insecticidal effect, Test Example 3",[3]; [9],A (100)
CCN(CC)C(=O)c1c(Cl)cccc1C(=O)Nc1ccc(OC(F)(F)F)cc1C [compound 1536],"Insecticidal effect (Test Example 1), judged from mortality",[1],A (100)
same,"Insecticidal effect (Test Example 2), judged from mortality",[2]; [5],A (100)
same,"Insecticidal effect (Test Example 3), judged from mortality",[3]; [6],A (100)
Cc1cc(OC(F)(F)C(F)OC(F)(F)F)ccc1NC(=O)c1c(I)cccc1C(=O)NC(C)C (stereo not drawn) [compound 457],"Insecticidal effect on diamondback moth (Test Example 1), judged grade",[1],A (100)
same,"Insecticidal effect on common cutworm (Test Example 2), judged grade",[2],A (100)
same,"Insecticidal effect on rice leafroller (Test Example 3), judged grade",[3],B (99-90)
CCNC(=O)c1c(I)cccc1C(=O)Nc1ccc(C(F)(F)C(F)(F)F)cc1F [compound 1502],"Insecticidal effect (Test Example 1), judged from mortality",[1],A (100)
same,"Insecticidal effect (Test Example 2), judged from mortality",[2]; [5],A (100)
same,"Insecticidal effect (Test Example 3), judged from mortality",[3]; [6],A (100)
Cc1cc(Oc2ncc(C(F)(F)F)cc2Cl)ccc1NC(=O)c1cccc(Br)c1C(=O)NC(C)C [compound 298],"Insecticidal effect, Test Example 1",[1]; [4],A (100)
same,"Insecticidal effect, Test Example 2",[2]; [5],A (100)
same,"Insecticidal effect, Test Example 3",[3]; [6],A (100)
CC(C)NC(=O)c1c(Cl)cccc1C(=O)Nc1ccc(OC(F)F)cc1C(F)(F)F [compound 163],"Insecticidal effect, Test Example 1",[1]; [4],A (100)
same,"Insecticidal effect, Test Example 2",[2]; [5],A (100)
same,"Insecticidal effect, Test Example 3",[3]; [6],A (100)
CC(=O)c1ccc(NC(=O)c2cccc(Cl)c2C(=O)NC(C)C)cc1 [compound 109],"Insecticidal effect, Test Example 1",[1]; [4],A (100)
same,"Insecticidal effect, Test Example 2",[2]; [5],A (100)
same,"Insecticidal effect, Test Example 3",[3]; [6],C (89-80)
CC(C)(C)NC(=O)c1c(I)cccc1C(=O)Nc1ccc(SC(F)(F)Br)cc1 [compound 1115],"Insecticidal effect, Test Example 1",[1]; [7],A (100)
same,"Insecticidal effect, Test Example 2",[2]; [8],A (100)
same,"Insecticidal effect, Test Example 3",[3]; [9],A (100)
Cc1ccc(NC(=O)c2cccc(Br)c2C(=O)NC(C)C)c(C)c1Cl [compound 270],"Insecticidal effect, Test Example 1",[1]; [4],A (100)
same,"Insecticidal effect, Test Example 2",[2]; [5],A (100)
same,"Insecticidal effect, Test Example 3",[3]; [6],A (100)
C#CC(C)(C)NC(=O)c1ccccc1C(=O)Nc1ccc(C(F)(F)C(F)(F)F)cc1C [compound 1414],"Insecticidal effect, Test Example 1",[1]; [7],A (100)
same,"Insecticidal effect, Test Example 2",[2]; [8],A (100)
same,"Insecticidal effect, Test Example 3",[3]; [9],A (100)
CCN(CC)C(=O)c1cc(Cl)ccc1C(=O)Nc1ccc(C(F)(F)C(F)(F)F)cc1C [compound 1280],"Insecticidal effect, Test Example 1",[1]; [7],A (100)
same,"Insecticidal effect, Test Example 2",[2]; [8],A (100)
same,"Insecticidal effect, Test Example 3",[3]; [9],A (100)
CCC(COC)NC(=O)c1c(I)cccc1C(=O)Nc1ccc(C(F)(F)C(F)(F)F)cc1C (stereo not drawn) [compound 1013],"Insecticidal effect, Test Example 1",[1]; [7],A (100)
same,"Insecticidal effect, Test Example 2",[2]; [8],A (100)
same,"Insecticidal effect, Test Example 3",[3]; [9],A (100)
Cc1cc(C(F)(F)C(F)(F)F)ccc1NC(=O)c1cc(I)ccc1C(=O)NC(C)C [compound 1203],"Insecticidal effect, Test Example 1",[1]; [7],A (100)
same,"Insecticidal effect, Test Example 2",[2]; [8],D (79-50)
same,"Insecticidal effect, Test Example 3",[3]; [9],A (100)
Cc1cc(C(F)(F)C(F)(F)F)ccc1NC(=O)c1cccc(I)c1C(=O)NC(C)(C)CCl [compound 1646],"Insecticidal effect (Test Example 1), judged from mortality",[1],A (100)
same,"Insecticidal effect (Test Example 2), judged from mortality",[2]; [5],A (100)
same,"Insecticidal effect (Test Example 3), judged from mortality",[3]; [6],A (100)
CC(C)NC(=O)c1c(Cl)cccc1C(=O)Nc1ccc(SC(F)(F)Br)cc1 [compound 1110],"Insecticidal effect, Test Example 1",[1]; [7],A (100)
same,"Insecticidal effect, Test Example 2",[2]; [8],C (89-80)
same,"Insecticidal effect, Test Example 3",[3]; [9],A (100)
CCc1cc(C(F)(F)C(F)(F)F)ccc1NC(=O)c1cccc(Cl)c1C(=O)NC(C)CC (stereo not drawn) [compound 1501],"Insecticidal effect (Test Example 1), judged from mortality",[1],A (100)
same,"Insecticidal effect (Test Example 2), judged from mortality",[2]; [5],A (100)
same,"Insecticidal effect (Test Example 3), judged from mortality",[3]; [6],A (100)
CC(C)(C)NC(=O)c1c(Cl)cccc1C(=O)Nc1ccc(C(F)(F)F)cc1 [compound 934],"Insecticidal effect on diamondback moth (Test Example 1), judged grade",[1],A (100)
same,"Insecticidal effect on common cutworm (Test Example 2), judged grade",[2],A (100)
same,"Insecticidal effect on rice leafroller (Test Example 3), judged grade",[3],A (100)
Cc1cc(OC(F)(F)C(Cl)(Cl)Cl)ccc1NC(=O)c1cccc(F)c1C(=O)NC(C)C [compound 501],"Insecticidal effect on diamondback moth (Test Example 1), judged grade",[1],A (100)
same,"Insecticidal effect on common cutworm (Test Example 2), judged grade",[2],A (100)
same,"Insecticidal effect on rice leafroller (Test Example 3), judged grade",[3],A (100)
Cc1cc(C(F)(F)C(F)(F)F)ccc1NC(=O)c1ccccc1C(=O)NC(C)C [compound 55],"Insecticidal effect, Test Example 1",[1]; [4],A (100)
same,"Insecticidal effect, Test Example 2",[2]; [5],B (99-90)
same,"Insecticidal effect, Test Example 3",[3]; [6],A (100)
Cc1c(NC(=O)c2cccc(Br)c2C(=O)NC(C)C)ccc(OC(F)F)c1Cl [compound 294],"Insecticidal effect, Test Example 1",[1]; [4],A (100)
same,"Insecticidal effect, Test Example 2",[2]; [5],A (100)
same,"Insecticidal effect, Test Example 3",[3]; [6],A (100)
CC(C)NC(=O)c1c(I)cccc1C(=O)Nc1ccc(Br)cc1 [compound 346],"Insecticidal effect, Test Example 1",[1]; [4],A (100)
same,"Insecticidal effect, Test Example 2",[2]; [5],C (89-80)
same,"Insecticidal effect, Test Example 3",[3]; [6],A (100)
